According to patent US11565998B2, “Succinate prodrug, compositions containing the succinate prodrug and uses thereof” (ABLIVA AB, priority 2019, dated 2023):
In brackets after ≈: the same amount, converted by molar mass. Blank lines part the entries; values can stand above or below the compound they belong to.

Experiments:
[1] = Solubility in aqueous formulations in comparison to other succinate prodrugs; assay type: physicochemical; conditions: pH 7.4, aqueous buffer, thermodynamic from solid; PBS pH7.4
Experimental: Solubility of Compound 1 in aqueous formulations in comparison to other succinate prodrugs was assessed by dissolving solid material in aqueous formulations and measuring the quantity in solution by HPLC (−MS). […] In many cases the max solubility of other prodrugs was lower than 100 uM. See Table 21 for example solubility data in PBS pH7.4 for other succinate prodrugs.

[2] = Caco-2 bioavailability in vitro assay (apparent permeability); assay type: in vitro ADME; conditions: human; Caco-2, apical to basolateral, 0.01 mM, pH 7.4, 1 h, 37° C.
Experimental: The cell penetrance and potential for oral bioavailability of Compound 1 was tested using a standard caco-2 bioavailability in vitro assay (in brief, confluent Caco-2 cells (L1, A. P., 1992; Grass, G. M; et al., 1992, Volpe, D. A., et al., 2001) in a 24 well Corning Costar Transwell format were provided by In Vitro Technologies Inc. (IVT Inc., Baltimore, Md., USA). The apical chamber contained 0.15 mL Hank's balanced buffer solution (HBBS) pH 7.4, 1% DMSO, 0.1 mM Lucifer Yellow. The basal chamber contained 0.6 mL HBBS pH 7.4, 1% DMSO. Controls and tests were incubated at 37° C. in a humidified incubator, shaken at 130 rpm for 1 h. Lucifer Yellow permeates via the paracellular (between the tight junctions) route only, a high Apparent Permeability (Papp) for Lucifer Yellow indicates cellular damage during assay and all such wells were rejected. Propranolol (good passive permeation with no known transporter effects) & acebutalol (poor passive permeation attenuated by active efflux by P-glycoprotein) were used as reference compounds. Compounds were tested in a uni- and bi-directional format by applying compound to the apical or basal chamber (at 0.01 mM). Compounds in the apical or basal chambers were analysed by HPLC-MS. Results were expressed as Apparent Permeability, Papp, (nm/s), in comparison to other succinate prodrugs, including a number from WO2015/155231.

[3] = Solubility of batches of different crystallinity; assay type: physicochemical
Experimental: Two batches of Compound 1 were generated with different crystallinity. Batch 2 had higher crystallinity than Batch 3, which is regarded as having a higher degree of amorphous Compound 1-Batch 2 is therefore regarded as a more crystalline batch, whereas Batch 3 is regarded as a more amorphous batch. The methods used are discussed in this document.
A sample of the more amorphous Compound 1 batch 3 was added to PBS or water to a final concentration of 258 mg/mL and sonicated for 10 minutes, then shaken for 30 minutes.
A sample of the more crystalline Compound 1 batch 2 was added to HPLC-grade water (Fisher) to a final concentration of 30 mg/mL and sonicated for 10 minutes, then shaken for 30 minutes.
A sample of the more crystalline Compound 1 batch 2 was added to HPLC-grade water (Fisher) to a final concentration of 52 mg/mL and sonicated for 20 minutes, then shaken for 1 hour.
A sample of the more crystalline Compound 1 batch 2 was added to HPLC-grade water (Fisher) to a final concentration of […] and sonicated for 20 minutes, then shaken for 1.5 hours.

[4] = Aqueous formulations of Compound 1 (water, PBS, saline), concentration by HPLC; assay type: physicochemical; conditions: for Calculated concentration by HPLC: 50% w/v in 100 mM PBS pH 7.4; for Calculated Conc.: tap water, target conc. 400 mg/ml; for 400 mg Compound in 0.7 ml Water, Measured Conc.: 400 mg in 0.7 ml
Experimental: Formulation Protocol • 1. Weigh out the required amount of Compound 1 then add the required amount of excipient (0.9% w/v saline, 100 mM PBS pH 7.4, water) to the solid Compound 1 to give the required mg/ml concentration of Compound 1. For example, for a 400 mg/ml formulation of Compound 1 in water, weigh out 400 mg of Compound 1 and add 0.7 ml of water. • 2. Sonicate the solution for 10 mins and then shake for 20 mins to ensure that Compound 1 is fully dissolved. • 3. The solution can be centrifuged (13000 rpm, 10 mins) to remove any particulates if required. • 4. The solution can be sterile filtered if required.
˜500 mg of compound was weighed into a vial, ˜500 μl 100 mM PBS pH 7.4 added and the vial was sonicated for 10 mins then shaken for 20 mins. A sample was then removed, diluted 1/2000 and the concentration calculated by HPLC analysis.
Compound 1 batch 3 was heated in an oven to 60° C. for 20 mins, at which point it became a translucent pale-yellow liquid. 100 mM PBS pH 7.4 (20% v/v) was added and the solution was mixed for 20 mins on a shaker. […] The solution was placed at 4° C. for 72 hours.
Method: • 1. Saline (0.9% w/v) was added to Compound 1 batch 11 in different amounts then sonicated for 10 mins—the samples remained slightly cloudy • 2. The samples were shaken for 30 mins at which point the solutions became translucent • 3. The solutions were diluted for HPLC analysis

[5] = Stability in purified (HPLC grade) or non-purified (tap) water; assay type: physicochemical; conditions: 1 mg/ml, room temperature
Experimental: A side-by-side experiment of the stability of Compound 1 in ‘purified’ HPLC grade water (Fisher Scientific) and ‘non-purified’ tap water was set up. In brief, 1 mg/mL solutions of Compound 1 were generated in ‘purified’ HPLC grade water (Fisher Scientific) and ‘non-purified’ tap water. These were incubated at room temperature for up to 10 days. Concentration and purity of Compound 1 was assessed over time by HPLC in comparison to a standard (AUC of 8.21 RT peak at 230 nm for calculated concentration and AUC of Compound 1 peak vs impurities for purity analysis). Data presented is the average of two samples.

[6] = Kinetic solubility (turbidity at 620 nm, dissolution rate constant); assay type: physicochemical; conditions: dissolution in PBS at 5° C., 460 mg/ml final concentration, 3 mins
Experimental: Solid Compound 1 Batches s3, s12-17 (˜80 mg) were added to wells of a flat clear bottom 96 well plate. PBS at 5° C. was added to give a 460 mg/ml final concentration of 01-354 for all batches. After addition of the PBS, the plate was agitated for 10 s then immediately analysed for turbidity at 620 nm in real time for 3 mins by an Epoch Microplate Spectrophotometer (BioTek). A rate constant for the dissolution was calculated from the exponential decay fit of the recorded data.

[7] = tested on: human peripheral blood cells; test: Metformin effect on mitochondrial function and lactate production of human blood cells; assay type: cell-based
Text: As mentioned above, increased lactate plasma levels are often observed in patients treated with drugs that may have mitochondrial-related side effects.

SMILES: CC(OC(=O)CCC(=O)O)OC(=O)CCC(=O)O [A, reference compound]
solubility [1]: 52 µM (≈ 13.6 µg/mL)

SMILES: CCN(CC)C(=O)[C@H](CSC(=O)CCC(=O)OC(C)C)NC(C)=O [A]
Papp A→B at 1 h, 0.01 mM [2]: 0.313 ×10⁻⁶ cm/s

SMILES: CCN(CC)C(=O)[C@H](CSC(=O)CCC(=O)OC)NC(C)=O [B]
Papp A→B at 1 h, 0.01 mM [2]: 0.192 ×10⁻⁶ cm/s

SMILES: CC(=O)NCC(C)SC(=O)CCC(=O)OC(C)C (stereo not drawn) [D]
Papp A→B at 1 h, 0.01 mM [2]: 0.142 ×10⁻⁶ cm/s

SMILES: CC(=O)NCCSC(=O)CCC(=O)OCC(C)(C)C [E]
Papp A→B at 1 h, 0.01 mM [2]: < 0.021 ×10⁻⁶ cm/s

SMILES: COC(=O)CCC(=O)SC(C)CNC(C)=O (stereo not drawn) [F]
Papp A→B at 1 h, 0.01 mM [2]: 0.145 ×10⁻⁶ cm/s

SMILES: CCOC(=O)CCC(=O)SC(C)CNC(C)=O (stereo not drawn) [G]
Papp A→B at 1 h, 0.01 mM [2]: 0.087 ×10⁻⁶ cm/s

SMILES: O=C1CNC(=O)[C@H](CSC(=O)CCC(=O)SC[C@@H]2NC(=O)CNC2=O)N1 [HI]
Papp A→B at 1 h, 0.01 mM [2]: 0.262 ×10⁻⁶ cm/s

SMILES: CCOC(=O)CCC(=O)SC[C@H](NC(C)=O)C(=O)N(CC)CC [K]
Papp A→B at 1 h, 0.01 mM [2]: 0.168 ×10⁻⁶ cm/s

SMILES: CC(=O)NCC(C)SC(=O)CCC(=O)OCC(C)(C)C (stereo not drawn) [L]
Papp A→B at 1 h, 0.01 mM [2]: 0.016 ×10⁻⁶ cm/s

SMILES: CCNC(=O)[C@H](CSC(=O)CCC(=O)SC[C@H](NC(=O)CC)C(=O)N(CC)CC)NC(=O)CC [M]
Papp A→B at 1 h, 0.01 mM [2]: 0.097 ×10⁻⁶ cm/s

SMILES: CN(C)C(=N)N=C(N)N [Metformin]
mitochondrial function at Complex I ([7]; human peripheral blood cells, concentrations relevant for metformin intoxication): inhibits mitochondrial function of human peripheral blood cells at Complex I in a time- and dose-dependent fashion | lactate production ([7]; intact platelets, over time): significant increase in lactate production

The next lines start with the values.

concentration reached ([3]; HPLC-grade water, added to 30 mg/mL, sonicated 10 minutes, shaken 30 minutes): 17000 µg/mL | concentration reached ([3]; HPLC-grade water, added to 52 mg/mL, sonicated 20 minutes, shaken 1 hour): 52000 µg/mL | concentration reached ([3]; HPLC-grade water, added to 2000 mg/mL, sonicated 20 minutes, shaken 1.5 hours): 850000 µg/mL | solubility at 1.5 h ([3]; HPLC-grade water, water, thermodynamic from solid, more crystalline Compound 1, read-out: water solubility): ≥ 850 mg/mL
SMILES: COC(=O)CCC(=O)SCCNC(C)=O [Batch 2, Methyl 3-[(2-acetylaminoethylthio)carbonyl]propionate]

Calculated concentration by HPLC [4]: 535 mg/mL | appearance of liquid formulation ([4]; batch 3 melted at 60° C., 100 mM PBS pH 7.4 (20% v/v) added, 72 hours at 4° C.): remained a translucent liquid | Calculated Conc. [4]: 381 mg/mL | 400 mg Compound in 0.7 ml Water, Measured Conc. [4]: 381 mg/mL | solubility at 30 min ([3]; PBS or water, water, thermodynamic from solid, PBS or water, added to 258 mg/mL, sonicated 10 minutes, shaken 30 minutes, read-out: concentration reached): ≥ 258 mg/mL | Calculated Conc. ([5]; HPLC grade water, day 0): 1.02 mg/mL | Purity ([5]; HPLC grade water, day 0): 99.0% | Calculated Conc. ([5]; HPLC grade water, day 3): 1.04 mg/mL | Purity ([5]; HPLC grade water, day 3): 98.8% | Calculated Conc. ([5]; HPLC grade water, day 5): 1.03 mg/mL | Purity ([5]; HPLC grade water, day 5): 99.0% | Calculated Conc. ([5]; HPLC grade water, day 6): 1.01 mg/mL | Purity ([5]; HPLC grade water, day 6): 99.0% | Calculated Conc. ([5]; tap water, day 0): 1.06 mg/mL | Purity ([5]; tap water, day 0): 98.5% | Calculated Conc. ([5]; tap water, day 3): 0.98 mg/mL | Purity ([5]; tap water, day 3): 95.7% | Calculated Conc. ([5]; tap water, day 5): 0.93 mg/mL | Purity ([5]; tap water, day 5): 94.4% | Calculated Conc. ([5]; tap water, day 6): 0.89 mg/mL | Purity ([5]; tap water, day 6): 93.3% | Calculated Conc. ([5]; tap water, day 10): 0.83 mg/mL | Purity ([5]; tap water, day 10): 93.0% | Rate constants, k [6]: 0.014 s⁻¹
SMILES: COC(=O)CCC(=O)SCCNC(C)=O [Batch 3, Methyl 3-[(2-acetylaminoethylthio)carbonyl]propionate]

Calculated concentration by HPLC [4]: 526 mg/mL
SMILES: COC(=O)CCC(=O)SCCNC(C)=O [Batch 4, Methyl 3-[(2-acetylaminoethylthio)carbonyl]propionate]

Calculated concentration by HPLC [4]: 531 mg/mL
SMILES: COC(=O)CCC(=O)SCCNC(C)=O [Batch 5, Methyl 3-[(2-acetylaminoethylthio)carbonyl]propionate]

Calculated concentration by HPLC [4]: 543 mg/mL
SMILES: COC(=O)CCC(=O)SCCNC(C)=O [Batch 6, Methyl 3-[(2-acetylaminoethylthio)carbonyl]propionate]

Calculated Conc. [4]: 378 mg/mL | 400 mg Compound in 0.7 ml Water, Measured Conc. [4]: 378 mg/mL | Rate constants, k [6]: 0.022 s⁻¹
SMILES: COC(=O)CCC(=O)SCCNC(C)=O [Batch 12, Methyl 3-[(2-acetylaminoethylthio)carbonyl]propionate]

Calculated Conc. [4]: 395 mg/mL | 400 mg Compound in 0.7 ml Water, Measured Conc. [4]: 395 mg/mL | Rate constants, k [6]: 0.013 s⁻¹
SMILES: COC(=O)CCC(=O)SCCNC(C)=O [Batch 13, Methyl 3-[(2-acetylaminoethylthio)carbonyl]propionate]

Calculated Conc. [4]: 366 mg/mL | 400 mg Compound in 0.7 ml Water, Measured Conc. [4]: 366 mg/mL | Rate constants, k [6]: 0.011 s⁻¹
SMILES: COC(=O)CCC(=O)SCCNC(C)=O [Batch 14, Methyl 3-[(2-acetylaminoethylthio)carbonyl]propionate]

400 mg Compound in 0.7 ml Water, Measured Conc. [4]: 414 mg/mL | Rate constants, k [6]: 0.074 s⁻¹
SMILES: COC(=O)CCC(=O)SCCNC(C)=O [Batch 15, Methyl 3-[(2-acetylaminoethylthio)carbonyl]propionate]

400 mg Compound in 0.7 ml Water, Measured Conc. [4]: 435 mg/mL | Rate constants, k [6]: 0.055 s⁻¹
SMILES: COC(=O)CCC(=O)SCCNC(C)=O [Batch 16, Methyl 3-[(2-acetylaminoethylthio)carbonyl]propionate]

Rate constants, k [6]: 0.111 s⁻¹
SMILES: COC(=O)CCC(=O)SCCNC(C)=O [Batch 17, Methyl 3-[(2-acetylaminoethylthio)carbonyl]propionate]

Papp A→B at 1 h, 0.01 mM [2]: 0.128 ×10⁻⁶ cm/s
SMILES: CCOC(=O)CCC(=O)SCCNC(C)=O [C]

Papp A→B at 1 h, 0.01 mM [2]: 0.135 ×10⁻⁶ cm/s
SMILES: CC(=O)NCCSC(=O)CCC(=O)OC(C)C [J]
